Reference: ChEMBL document CHEMBL4418496, “Inhibitors of crl4 ubiquitin ligase and uses thereof” (2014)
Activity calls are given as the source filed them. The rule behind the calls is not given here. Where a SMILES comes first, the peptide text is derived from it. The star is where a group is joined. Cbz = O=C(OCc1ccccc1)*

Assays:
Cullin-4A [1] = target: T1, Cullin-4A (Homo sapiens, UniProt Q13619); assay: Inhibition of GST-tagged CUL4A/Rbxl ubiquitin ligase activity (unknown origin) assessed as reduction in reconstituted DDB1 ubiquitination in presence of ubiquitin, El, E2 and DDB1 incubated for 1 hr by Western blotting analysis
Cullin-4B (Homo sapiens) = Cullin-4B (Homo sapiens) (UniProt Q13620); assay: Inhibition of CUL4B in human MCF7 cells assessed as reduction in 3-methylcholanthrene-induced androgen receptor degradation at 50 uM; assay type: cell-based
Cullin-4A (Mus musculus) [2] = target: Cullin-4A (Mus musculus) (UniProt Q3TCH7); assay: Inhibition of CUL4A in mouse MEF cells stably expressing FL FLAG-tagged DDB2 assessed as reduction in F-DDB2 degradation incubated for 2 hrs before irradiated with 10 J/m2 UV irradiation; assay type: cell-based
Cullin-1 (Homo sapiens) = Cullin-1 (Homo sapiens) (UniProt Q13616); assay: Inhibition of CUL1 in human U20S cells assessed as reduction in TNF-alpha-induced IkappaB-alpha degradation at 50 uM incubated for 2 hrs followed by TNFalpha stimulation for 15 mins by Western blotting analysis; assay type: cell-based
Proteasome = assay: Inhibition of proteasome in mouse MEF cells stably expressing FL FLAG-tagged DDB2 assessed as reduction in F-DDB2 degradation incubated for 2 hrs before irradiated with 10 J/m2 UV irradiation
Cullin-4A (Mus musculus) [3] = target: Cullin-4A (Mus musculus) (UniProt Q3TCH7); assay: Inhibition of CUL4A in mouse MEF cells stably expressing FL FLAG-tagged DDB2 assessed as reduction in F-DDB2 degradation incubated for 2 hrs before irradiated with 10 J/m2 UV irradiation relative to control; assay type: cell-based
Cullin-4A [4] = target: T1, Cullin-4A; assay: Inhibition of CUL4A in human HCT116 cells assessed as promotion of UV-damaged DNA repair by measuring enhancement of 6,4-photoproducts removal pre-incubated for 2 hrs before UV-irradiation by ELISA; assay type: cell-based

Sequence of Cullin-4A (Mus musculus) (Q3TCH7 whole entry): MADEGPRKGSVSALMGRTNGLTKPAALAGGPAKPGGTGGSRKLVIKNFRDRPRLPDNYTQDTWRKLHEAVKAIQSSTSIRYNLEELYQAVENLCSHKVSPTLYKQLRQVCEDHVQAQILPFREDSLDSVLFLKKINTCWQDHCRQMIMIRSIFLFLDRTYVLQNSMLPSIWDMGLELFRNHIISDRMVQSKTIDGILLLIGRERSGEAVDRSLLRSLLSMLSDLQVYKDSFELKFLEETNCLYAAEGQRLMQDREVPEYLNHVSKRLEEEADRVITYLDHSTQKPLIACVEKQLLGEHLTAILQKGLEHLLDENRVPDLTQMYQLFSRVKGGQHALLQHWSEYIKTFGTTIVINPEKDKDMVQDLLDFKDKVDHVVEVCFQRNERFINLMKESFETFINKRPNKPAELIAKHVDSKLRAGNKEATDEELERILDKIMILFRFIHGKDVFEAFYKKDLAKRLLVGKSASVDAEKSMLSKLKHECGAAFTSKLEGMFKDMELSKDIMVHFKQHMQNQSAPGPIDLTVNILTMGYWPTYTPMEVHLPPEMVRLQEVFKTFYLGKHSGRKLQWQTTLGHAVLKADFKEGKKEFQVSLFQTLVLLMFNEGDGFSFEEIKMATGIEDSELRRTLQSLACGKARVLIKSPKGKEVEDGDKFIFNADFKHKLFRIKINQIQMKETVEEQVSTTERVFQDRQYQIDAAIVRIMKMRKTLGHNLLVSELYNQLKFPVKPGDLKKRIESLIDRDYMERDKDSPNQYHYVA
Sequence of Cullin-1 (Homo sapiens) (Q13616 whole entry): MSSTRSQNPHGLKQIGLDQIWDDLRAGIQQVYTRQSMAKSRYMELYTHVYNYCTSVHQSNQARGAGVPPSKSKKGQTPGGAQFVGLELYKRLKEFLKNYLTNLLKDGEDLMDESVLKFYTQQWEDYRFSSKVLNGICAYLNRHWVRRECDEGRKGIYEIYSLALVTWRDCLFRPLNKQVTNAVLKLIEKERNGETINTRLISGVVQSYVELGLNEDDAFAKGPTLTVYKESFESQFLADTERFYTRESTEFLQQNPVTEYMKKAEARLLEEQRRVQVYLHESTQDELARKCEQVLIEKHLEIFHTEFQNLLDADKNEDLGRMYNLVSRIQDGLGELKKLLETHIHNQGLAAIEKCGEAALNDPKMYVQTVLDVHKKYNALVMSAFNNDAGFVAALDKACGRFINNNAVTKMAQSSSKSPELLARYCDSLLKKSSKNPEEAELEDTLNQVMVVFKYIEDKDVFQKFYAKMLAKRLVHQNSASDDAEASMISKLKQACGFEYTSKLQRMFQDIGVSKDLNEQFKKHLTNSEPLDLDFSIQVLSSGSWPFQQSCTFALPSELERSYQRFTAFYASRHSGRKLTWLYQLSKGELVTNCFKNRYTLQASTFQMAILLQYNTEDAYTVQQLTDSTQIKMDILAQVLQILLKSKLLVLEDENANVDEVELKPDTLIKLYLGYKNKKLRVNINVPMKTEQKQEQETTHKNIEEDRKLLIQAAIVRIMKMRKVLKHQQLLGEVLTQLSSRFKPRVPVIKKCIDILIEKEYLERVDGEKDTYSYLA
Sequence of Cullin-4B (Homo sapiens) (Q13620 whole entry): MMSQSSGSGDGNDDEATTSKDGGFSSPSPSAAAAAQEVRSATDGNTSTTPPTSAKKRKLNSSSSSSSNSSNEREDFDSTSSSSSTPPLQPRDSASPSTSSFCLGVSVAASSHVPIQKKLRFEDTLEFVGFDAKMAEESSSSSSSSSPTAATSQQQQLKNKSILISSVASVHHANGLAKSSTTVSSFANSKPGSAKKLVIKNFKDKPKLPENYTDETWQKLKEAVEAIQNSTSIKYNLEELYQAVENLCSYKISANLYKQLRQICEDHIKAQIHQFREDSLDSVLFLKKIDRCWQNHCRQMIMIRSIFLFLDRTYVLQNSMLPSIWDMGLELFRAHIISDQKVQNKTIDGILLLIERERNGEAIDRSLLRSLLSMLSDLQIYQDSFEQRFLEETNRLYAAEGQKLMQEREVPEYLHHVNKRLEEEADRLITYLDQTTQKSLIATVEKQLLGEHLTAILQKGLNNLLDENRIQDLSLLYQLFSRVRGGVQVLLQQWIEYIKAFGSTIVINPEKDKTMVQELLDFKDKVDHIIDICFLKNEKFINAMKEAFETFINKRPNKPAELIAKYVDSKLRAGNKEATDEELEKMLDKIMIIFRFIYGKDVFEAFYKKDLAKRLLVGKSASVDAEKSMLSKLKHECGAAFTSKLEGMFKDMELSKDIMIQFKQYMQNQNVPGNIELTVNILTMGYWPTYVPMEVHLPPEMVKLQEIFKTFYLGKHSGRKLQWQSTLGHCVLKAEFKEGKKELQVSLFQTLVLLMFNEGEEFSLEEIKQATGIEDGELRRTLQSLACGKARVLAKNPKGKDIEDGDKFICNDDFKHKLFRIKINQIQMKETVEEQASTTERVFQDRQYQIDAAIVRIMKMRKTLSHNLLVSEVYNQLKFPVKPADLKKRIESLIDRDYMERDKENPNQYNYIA
T1 sequence (Q13619 whole entry): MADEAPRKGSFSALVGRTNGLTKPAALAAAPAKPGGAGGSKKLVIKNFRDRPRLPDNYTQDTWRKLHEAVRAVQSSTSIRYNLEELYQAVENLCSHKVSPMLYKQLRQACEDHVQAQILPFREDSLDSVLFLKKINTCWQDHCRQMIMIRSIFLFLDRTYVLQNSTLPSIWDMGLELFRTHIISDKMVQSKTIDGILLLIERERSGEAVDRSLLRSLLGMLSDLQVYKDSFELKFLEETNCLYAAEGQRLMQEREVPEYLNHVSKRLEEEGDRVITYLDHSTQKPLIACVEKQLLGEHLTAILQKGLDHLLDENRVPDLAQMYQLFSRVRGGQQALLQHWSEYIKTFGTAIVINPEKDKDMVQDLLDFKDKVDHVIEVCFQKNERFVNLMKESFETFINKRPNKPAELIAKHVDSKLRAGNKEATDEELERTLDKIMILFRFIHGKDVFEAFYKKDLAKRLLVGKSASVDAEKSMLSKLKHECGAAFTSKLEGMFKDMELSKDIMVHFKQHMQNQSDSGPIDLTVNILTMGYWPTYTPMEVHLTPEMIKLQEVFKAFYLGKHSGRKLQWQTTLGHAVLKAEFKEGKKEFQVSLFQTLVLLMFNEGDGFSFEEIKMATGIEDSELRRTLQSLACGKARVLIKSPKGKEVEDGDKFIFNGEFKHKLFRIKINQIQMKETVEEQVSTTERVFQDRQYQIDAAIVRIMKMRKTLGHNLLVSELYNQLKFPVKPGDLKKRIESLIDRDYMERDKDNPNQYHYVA

## CNC(=O)Oc1c(Br)cc2sc(=O)oc2c1Br
Cullin-4A [1]
  IC50: < 0.24 µM

## COC(=O)Oc1c(Br)c(C)c2oc(=O)sc2c1Br
Cullin-4A [1]
  IC50: < 0.24 µM

## COc1nsc(I)c1C#N
Cullin-4B (Homo sapiens)
  inhibition: inactive
Cullin-4A (Mus musculus) [2]
  inhibition (active/inactive call): Active

## N#CC1=C(N)SC(N)=C(C#N)C1c1ccco1
Cullin-4B (Homo sapiens)
  inhibition: inactive
Cullin-4A (Mus musculus) [2]
  inhibition (active/inactive call): Active
Cullin-1 (Homo sapiens)
  inhibition: inactive

## COc1ccc(-c2nnc(S)n2-c2ccc(C)cc2)cc1
Cullin-4B (Homo sapiens)
  inhibition: inactive
Cullin-4A (Mus musculus) [2]
  inhibition (active/inactive call): Active
Cullin-4A [1]
  IC50: 2.4 µM

## CC1(C)Cc2c(c(N3CCNCC3)[nH]c(=S)c2C#N)CO1
Cullin-4A (Mus musculus) [2]
  inhibition (active/inactive call): Active

## N#CC1=C(N)SC(N)=C(C#N)C1c1cccs1
Cullin-4B (Homo sapiens)
  inhibition: inactive
Cullin-4A (Mus musculus) [2]
  inhibition (active/inactive call): Active
Cullin-1 (Homo sapiens)
  inhibition: inactive

## Clc1ccc2nc(Cl)c3nnnn3c2c1
Cullin-4A (Mus musculus) [2]
  inhibition (active/inactive call): Active

## CC(C)C[C@@H](C=O)NC(=O)[C@H](CC(C)C)NC(=O)[C@H](CC(C)C)NC(=O)OCc1ccccc1 (Cbz-Leu-Leu-Leu-aldehyde)
Proteasome
  inhibition: Active

## N#CC1=C(N)SC(N)=C(C#N)C1c1cc(Br)ccc1F
Cullin-4A [1]
  IC50: 690 µM

## COC(=O)Oc1cc2oc(=O)sc2cc1Cl
Cullin-4A (Mus musculus) [2]
  inhibition (active/inactive call): Active

## CC(=O)CN1C(=O)C(=O)c2cc(Br)ccc21
Cullin-4A (Mus musculus) [2]
  inhibition (active/inactive call): Active

## CCOC(=O)Oc1cc2oc(=O)sc2cc1Br
Cullin-4A (Mus musculus) [2]
  inhibition (active/inactive call): Active

## N#Cc1c(-c2ccco2)c2c([nH]c1=S)CCCC2
Cullin-4A [1]
  IC50: 0.554 µM

## CCOC(=O)Oc1cc2oc(=O)sc2cc1Cl
Cullin-4A (Mus musculus) [2]
  inhibition (active/inactive call): Active

## N#Cc1c(S)nc2c(c1-c1ccco1)CCCC2
Cullin-4B (Homo sapiens)
  inhibition: inactive
Cullin-4A (Mus musculus) [2]
  inhibition (active/inactive call): Active
Cullin-4A (Mus musculus) [3]
  inhibition: Dose-dependent effect
Cullin-4A [4]
  inhibition: Active
Cullin-1 (Homo sapiens)
  inhibition: inactive

## CCOC(=O)Oc1c(Cl)cc2oc(=O)sc2c1Cl
Cullin-4A (Mus musculus) [2]
  inhibition (active/inactive call): Active

## N#CC1=C(N)SC(N)=C(C#N)C1c1ccc(C(F)(F)F)cc1
Cullin-4A [1]
  IC50: > 50 µM

## COc1ccc(-c2c3c([nH]c(=S)c2C#N)CCC3)cc1
Cullin-4A [1]
  IC50: 0.997 µM

## O=[N+]([O-])c1c(Cl)ncnc1N1CCCCC1CO (stereo not drawn)
Cullin-4A (Mus musculus) [2]
  inhibition (active/inactive call): Active

## N#Cc1c(-c2ccncc2)c2c([nH]c1=S)CCCC2
Cullin-4A [1]
  IC50: 2.68 µM

## COC(=O)c1sc(=S)n(-c2ccc(F)cc2F)c1N
Cullin-4A (Mus musculus) [2]
  inhibition (active/inactive call): Active

## CC(C)c1nnc(S)n1-c1ccc(Cl)c(Cl)c1
Cullin-4B (Homo sapiens)
  inhibition: inactive
Cullin-4A (Mus musculus) [2]
  inhibition (active/inactive call): Active
Cullin-4A [1]
  IC50: < 0.24 µM

## Sc1nnc(C2CC2)n1-c1ccc(Cl)c(Cl)c1
Cullin-4B (Homo sapiens)
  inhibition: inactive
Cullin-4A (Mus musculus) [2]
  inhibition (active/inactive call): Active
Cullin-4A [1]
  IC50: 703 µM

## COc1ccc(-c2c3c([nH]c(=S)c2C#N)CCCC3)cc1
Cullin-4B (Homo sapiens)
  inhibition: inactive
Cullin-4A (Mus musculus) [2]
  inhibition (active/inactive call): Active
Cullin-1 (Homo sapiens)
  inhibition: inactive

## N#CC1=C(N)SC(N)=C(C#N)C1c1ccccc1F
Cullin-4B (Homo sapiens)
  inhibition: inactive
Cullin-4A (Mus musculus) [2]
  inhibition (active/inactive call): Active
Cullin-4A (Mus musculus) [3]
  inhibition: Dose-dependent effect
Cullin-4A [4]
  inhibition: Active
Cullin-1 (Homo sapiens)
  inhibition: inactive

## N#CC1=C(N)SC(N)=C(C#N)C1CCc1ccccc1
Cullin-4A [1]
  IC50: 3.68 µM

## COc1ccc(-c2c(C#N)c(S)nc3c2CCC3)cc1
Cullin-4B (Homo sapiens)
  inhibition: inactive
Cullin-4A (Mus musculus) [2]
  inhibition (active/inactive call): Active
Cullin-1 (Homo sapiens)
  inhibition: inactive

## O=c1oc2c(Br)c(O)c(Br)cc2s1
Cullin-4B (Homo sapiens)
  inhibition: inactive
Cullin-4A (Mus musculus) [2]
  inhibition (active/inactive call): Active
